Results reported in patent US11066455B2, “Tmem100 peptides and variants thereof and their use in treating or preventing diseases or conditions” (The Johns Hopkins University, priority 2014, dated 2021).
pEC50: −log10 of the molar value. Entries after “also recorded” stand apart in the source; their conditions may differ. Where two headings read alike, the source gives them in different places. Peptide text beside a SMILES is read from it. * marks the point of attachment. Myristoyl = CCCCCCCCCCCCCC(=O)*

Columns and labels:
[1] = system: ongoing neuropathic pain in SNL rats; experiment: Conditioned place preference test for ongoing pain in SNL rats; assay type: in vivo, rat; settings: i.p.
Source text: Ongoing, or spontaneous, pain, which is most bothersome to patients, is difficult to treat and difficult to study in animals. The conditioned place preference test has been successfully developed to reveal the presence of non-evoked, ongoing pain and pain relief based on the preference of an animal for the context paired with a pain-relief treatment. The conditioned place preference can also capture the aversive aspects of pain. Strikingly, many studies have shown that the rodent conditioned place preference test accurately reflects the effectiveness of human clinical treatments. Therefore, this test is a powerful approach to investigate the potential effectiveness of new treatments and mechanisms for relief of ongoing pain. Two previous studies have examined the role of TRPA1 in ongoing pain by the conditioned place preference test. […] Because the antagonists used in those studies (HC030031 and Chem5861528) target TRPA1 monomers, it is possible that T100-Mut can inhibit ongoing pain by modulating the TRPA1/V1 complex. This possibility was tested in rodents with SNL-induced ongoing pain using the conditioned place preference test. […] Systemic administration of gabapentin, an analgesic that is known to alleviate neuropathic pain, was used as a positive control (FIG. 16B).

[2] = system: neuropathic mechanical hypersensitivity in SNL rats; assay type: in vivo, rat
Source text: An modified L5 SNL model was produced as described in previously (He et al., 2014; Shechter et al., 2013). Male Sprague-Dawley rats (200-350 g, Harlan, Indianapolis, Ind.) were anesthetized with 2% isoflurane. The left L5 spinal nerve was ligated with a 6-0 silk suture and cut distally. The muscle layer was closed with 4-0 chromic gut suture and the skin closed with metal clips. For intrathecal catheter implantation, a small slit was cut in the atlanto-occipital membrane of rats, into which a saline-filled piece of PE-10 tubing (6-7 cm) was inserted (He et al., 2014). […] Hypersensitivity to punctuate mechanical stimulation was determined with the up-down method by using a series of von Frey filaments (0.38-15.1 g) applied for 4-6 seconds to the test area on the plantar surface of the hindpaw (Chaplan et al., 1994; He et al., 2014). The PWT was determined according to the formula provided by Dixon (Dixon, 1980). […] HC-030031 was purchased from Tocris Bioscience (Bristol, UK). Both drugs were dissolved in 10% dimethylsulfoxide (DMSO), 5% Tween 80 and 85% sterile saline solution. The final working solution which was injected by intrathecal route contained <1% DMSO. The number of animals used in each study was based on experience with similar studies and power analysis calculations. Animals were randomized to the different treatment groups and blinded the experimenter to drug treatment to reduce selection and observation bias. After the experiments were completed, no data point was excluded. STATISTICA 6.0 software (StatSoft, Inc., Tulsa, Okla.) was used to conduct all statistical analyses. The Tukey honestly significant difference (HSD) post-hoc test was used to compare specific data points. Bonferroni correction was applied for multiple comparisons. Two-tailed tests were performed, and data are expressed as mean±SEM; P<0.05 was considered significant in all tests.
(§1) The sequence from the last 28 amino acids of the C-terminus of the Tmem100-3Q mutant protein was synthesized and myristoylated at its N-terminus (myr-[…]-COOH) (SEQ ID NO: 8) by Twentyfirst Century Biochemicals. […] For the calcium imaging assay, the peptides were added to the calcium imaging buffer with a final concentration of 200 nM and incubated for at least […] at room temperature. For the mice behavioral assays, the peptides (5 μL, 2 mM) were injected subcutaneously in the hindpaw at least 30 minutes before testing. For the rat behavior assays, human T100-3Q (h-T100), a palmitoylated cell permeable peptide mutated based on the C terminus of human sequence in Tmem100, was applied. The sequence is Palmitoyl-[…]-COOH (SEQ ID NO: 7).

[3] = system: MO-induced pain in TRPV1-/- mice; experiment: Mustard oil injection in TRPV1-/- mice; assay type: in vivo, mouse
Experimental: (§2) Mice were placed in a transparent plastic box (4.5×5×10 cm) on a metal mesh and acclimatized for 30 minutes prior to testing. Each mouse was tested more than 5 times at a specific force manually, and the threshold was determined by the lowest force needed to elicit responses more than 50% of the time.
Mice were injected intradermally in the hind paw with 6 μL of 0.2% mustard oil (Sigma-Aldrich 377430) with Hamilton needles (80300). The mice were placed in a plexiglass cylinder, and the total time spent licking and flinching was recorded for the first 10 minutes after injection. Thirty and sixty minutes after injection, the mice were assayed with von Frey filaments for mechanical hyperalgesia.
The sequence from the last 28 amino acids of the C-terminus of the Tmem100-3Q mutant protein was synthesized and myristoylated at its N-terminus (myr-[…]-COOH) (SEQ ID NO: 8) by Twentyfirst Century Biochemicals. […] For the calcium imaging assay, the peptides were added to the calcium imaging buffer with a final concentration of 200 nM and incubated for at least […] at room temperature. For the mice behavioral assays, the peptides (5 μL, 2 mM) were injected subcutaneously in the hindpaw at least 30 minutes before testing. For the rat behavior assays, human T100-3Q (h-T100), a palmitoylated cell permeable peptide mutated based on the C terminus of human sequence in Tmem100, was applied. […]

TRPA1 [4] = system: T1, TRPA1; experiment: Calcium imaging of HEK293T cells expressing TRPA1 and TRPV1 (MO or CA); assay type: cell-based
T1 construct: percentage of cells responsive to CA; other: shortened CPP 2 μM; CA 10 μM; HEK293 TRPA1+TRPV1; vs scrambled; percentage of cells responsive to MO; other: peptide 200 nM pre-treatment; 500 nM MO; HEK293T TRPA1+TRPV1; percentage of cells that respond to 100 nM MO and 10 μM CA; other: HEK293T TRPA1+TRPV1, Tmem100-3Q-transfected vs lacki; reduction in the percentage of cells responding to MO
Experimental: (§3) Calcium imaging assays were performed as previously described (Liu et al., 2009). Cells were loaded with 2 μM fura 2-acetomethoxy ester (Molecular Probes) for 30 min in the dark at room temperature or for 45 minutes at 37° C. for DRG and cell lines, respectively. After washing, cells were imaged at 340 and 380 nm excitation to detect intracellular free calcium under a fluorescent microscope (Nikon Eclipse TE2000-S) and Lambda 10B shutter (Sutter Instrument). The cells were bathed in calcium imaging buffer (pH 7.45, 130 mM NaCl, 3 mM KCl, 2.5 mM CaCl2, 10 mM HEPES, 10 mM glucose, 1.2 mM NaHCO3, with sucrose to increase osmolarity to 290 mOsm). The reagents and buffers were applied through a gravity perfusion system at a rate of […], including mustard oil (Sigma 377430), cinnamaldehyde (Sigma C80687), menthol (Sigma M2780), and capsaicin (Sigma M2028). Cells with high baseline 340/380 values (>1.5) were excluded for analysis. For DRG neurons, IB4 staining was performed in the chamber with the dilution of 1:200 (Molecular Probes 121412) for 160 seconds before washing off at the end of each test. Images were processed and analyzed with NIS-Elements BR 2.30 software (Nikon). A responsive cell was defined as one that with greater than a 20% increase in the 340/380 ratio above the baseline. Intracellular calibration for calcium was performed as previously described (Akopian et al., 2007). The data was analyzed with the experimenter blinded to the genotypes or constructs transfected.
(§4) DRG from 3 to 4-week old mice were collected in cold DH10 medium (90% DMEM/F-12, 10% FBS, 100 U/ml penicillin, and 100 μg/ml Streptomycin, Gibco) and treated with enzyme solution in HBSS containing collagenase (1.65 mg/mL, Worthington CLS I) and dispase (3.55 mg/mL, GIBCO 17105-041) at 37° C. for 30 minutes. After trituration and centrifugation, cells were resuspended in DH10, plated on glass coverslips coated with poly-D-lysine (0.5 mg/ml, Stoughton, Mass.) and laminin (10 μg/ml, Invitrogen), and cultured overnight in an incubator at 37° C. The neurons were tested within 24 hours. HEK293T, COS-7, and CHO cells were cultured in a medium consisting of 90% DMEM, 10% FBS, 100 U/mL penicillin, and 100 μg/ml Streptomycin. GlutaMAX (Gibco 35050-061) was also added for CHO cells. For calcium imaging, the cells were plated on glass coverslips coated with poly-D-lysine (0.5 mg/ml, Stoughton, Mass.). In the HEK cell studies the denominator is the cells expressing both TRPA1, TRPV1, and the designated constructs (i.e. Tmem100 or Tmem100-3Q mutant). mCherry:TRPV1:Tmem100 was transfected in 1:8:8 ratio into TRPA1 stable cell line (obtained from N. Tigue from GlaxoSmithKline) and used mCherry as the marker for the cells expressing the constructs 18 hours after transfection with Lipofectamine 2000. The transfection efficiency for Tmem100+TRPV1+TRPA1 triple-positive cells is 27±3%. This efficiency was determined by mCherry(+) divided by total number of cells in the bright fields.
as §1

[5] = system: paclitaxel (Taxol)-induced mechanical hyperalgesia in wild-type mice; experiment: Paclitaxel-induced mechanical hyperalgesia; assay type: in vivo, mouse; settings: day 7 post paclitaxel; intradermal injection of T100-Mut
Experimental: as §2
Mice were injected with paclitaxel (Sigma T7191) intraperitoneally at the dose of 6 mg/kg, as previously described (Materazzi et al., 2012). Seven days after paclitaxel injection, the mice were assayed with Von Frey methods for mechanical hyperalgesia, both before and four hours after injection of cell permeable peptides.

TRPA1 [6] = biological target: T2, TRPA1 (UniProt O75762); experiment: Calcium imaging of HEK293T cells expressing TRPA1 and TRPV1 (MO or CA); assay type: cell-based
T2 construct: other: cells expressing A1+V1; other: cells expressing A1+V1+Tmem100
Experimental: as §3, §4, §1

[7] = biological target: TRPA1 (expressed in heterologous cells: CHO, HEK293T); experiment: cell-based or functional assay
Sequence of TRPA1 (expressed in heterologous cells: CHO, HEK293T) (Q8BLA8 whole entry): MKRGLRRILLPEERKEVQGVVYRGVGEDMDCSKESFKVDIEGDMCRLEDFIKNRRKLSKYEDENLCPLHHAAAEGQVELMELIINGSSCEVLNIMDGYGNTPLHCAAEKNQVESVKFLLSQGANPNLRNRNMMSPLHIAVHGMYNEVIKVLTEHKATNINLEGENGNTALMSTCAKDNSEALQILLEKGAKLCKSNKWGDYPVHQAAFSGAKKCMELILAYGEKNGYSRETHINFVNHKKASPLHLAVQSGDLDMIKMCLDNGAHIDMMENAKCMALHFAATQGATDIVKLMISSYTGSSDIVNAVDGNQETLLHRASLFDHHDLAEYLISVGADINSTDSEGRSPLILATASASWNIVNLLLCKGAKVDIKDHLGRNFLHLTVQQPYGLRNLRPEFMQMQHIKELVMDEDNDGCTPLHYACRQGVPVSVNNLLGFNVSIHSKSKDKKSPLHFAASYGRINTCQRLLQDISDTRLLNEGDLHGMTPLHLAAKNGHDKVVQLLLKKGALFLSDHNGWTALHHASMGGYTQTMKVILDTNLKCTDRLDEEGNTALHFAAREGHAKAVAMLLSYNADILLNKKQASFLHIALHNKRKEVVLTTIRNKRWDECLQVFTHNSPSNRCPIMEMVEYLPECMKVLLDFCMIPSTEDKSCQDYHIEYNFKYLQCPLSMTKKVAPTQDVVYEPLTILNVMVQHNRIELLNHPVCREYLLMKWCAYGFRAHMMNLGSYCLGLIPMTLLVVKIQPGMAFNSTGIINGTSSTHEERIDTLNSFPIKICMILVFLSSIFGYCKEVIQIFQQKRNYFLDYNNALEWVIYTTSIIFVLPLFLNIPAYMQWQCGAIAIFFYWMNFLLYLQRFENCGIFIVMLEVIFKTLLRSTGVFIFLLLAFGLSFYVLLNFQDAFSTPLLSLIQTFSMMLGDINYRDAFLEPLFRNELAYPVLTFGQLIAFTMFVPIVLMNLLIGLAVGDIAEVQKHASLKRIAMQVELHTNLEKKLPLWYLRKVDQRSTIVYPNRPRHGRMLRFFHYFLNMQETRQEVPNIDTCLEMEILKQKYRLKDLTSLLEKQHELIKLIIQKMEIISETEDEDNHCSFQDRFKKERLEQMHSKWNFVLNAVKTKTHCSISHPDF

## NCC1(CC(=O)O)CCCCC1 [gabapentin, reference compound]
[1]; 60 mg/kg, saline-paired chamber as comparison
  conditioned place preference: time in gabapentin-paired chamber, SNL rats: significantly increased
[1]; gabapentin 60 mg/kg, sham-operated
  chamber preference in sham-operated rats: did not induce chamber preference

## CC(C)c1ccc(NC(=O)Cn2cnc3c2c(=O)n(C)c(=O)n3C)cc1 [HC-030031, reference compound]
[2]; intrathecal 10 μl
  contralateral PWT after drug injection: did not change significantly
[2]; intrathecal 10 μl, h-T100 10-100 μM, HC-030031 10-200 μM, scrambled 100 μM
  ipsilateral paw withdrawal threshold (PWT) vs pre-drug: increased
[2]; intrathecal, 10 μl, SNL rats, read-out: EC50 for inhibiting pain
  pEC50: 4.24

## CCCCCCCCCCCCCC(=O)N[C@@H](Cc1c[nH]c2ccccc12)C(=O)N[C@@H](CCCCN)C(=O)N[C@H](C(=O)N[C@@H](CCCNC(=N)N)C(=O)N[C@@H](CCC(N)=O)C(=O)N[C@@H](CCCNC(=N)N)C(=O)N[C@@H](CC(N)=O)C(=O)N[C@@H](CCCCN)C(=O)N[C@@H](CCCCN)C(=O)N[C@H](C(=O)N[C@@H](CCC(N)=O)C(=O)N[C@@H](CCC(N)=O)C(=O)N[C@@H](CCC(N)=O)C(=O)N[C@@H](CCC(=O)O)C(=O)N[C@@H](CO)C(=O)N[C@@H](CCC(N)=O)C(=O)N[C@H](C(=O)N[C@@H](C)C(=O)N[C@@H](CC(C)C)C(=O)N[C@H](C(=O)N[C@H](C(=O)N[C@@H](CC(N)=O)C(=O)N[C@@H](CCC(N)=O)C(=O)N[C@@H](CCCNC(=N)N)C(=O)N[C@@H](CS)C(=O)N[C@@H](CC(C)C)C(=O)N[C@@H](Cc1ccccc1)C(=O)N[C@@H](C)C(=O)O)C(C)C)C(C)C)[C@@H](C)O)C(C)C)C(C)C [T100-Mut] (Myristoyl-WKVRQRNKKVQQQESQTALVVNQRCLFA-OH)
[3]
  MO-induced acute pain in TRPV1-/- mice: did not perturb; also recorded: no effect
  MO-induced mechanical hyperalgesia in TRPV1-/- mice: did not perturb; also recorded: no effect
[2]; SNL rats, intrathecal
  efficacy and potency of inhibiting neuropathic pain compared with HC-030031: comparable or better efficacy and potency
[2]; rat, in vivo
  pEC50: 4.53
TRPA1 [4]; heterologous system, T100-Mut treatment vs scrambled
  reduction in the percentage of cells responding to MO: 65%
TRPA1 [4]; peptide 200 nM pre-treatment, 500 nM MO, HEK293T TRPA1+TRPV1
  percentage of cells responsive to MO: 6±2.4%
[5]
  paclitaxel-induced mechanical hyperalgesia: attenuated; also recorded: alleviated

## O=CC=Cc1ccccc1 [CA, cinnamaldehyde, reference compound]
TRPA1 [6]; cells expressing A1+V1
  pEC50: 4.24
TRPA1 [6]; cells expressing A1+V1+Tmem100
  pEC50: 4.68

## TRPV1 (expressed in heterologous cells: CHO, HEK293T) (receptor)
[7]
  MO (10 µM)-evoked Ca2+ influx, CHO cells, with Tmem100-3Q co-expressed (1:1:4): 321 nM
  MO (10 µM)-gated whole-cell current density, CHO cells, with Tmem100-3Q co-expressed (1:1:4): 39.2 pA/pF
  MO (10 µM)-induced single-channel activity (NPo), CHO cells, with Tmem100-3Q co-expressed (1:1:4): 0.16
  MO (10 µM)-induced single-channel activity (NPo), CHO cells, with wild-type Tmem100 co-expressed (1:1:4): 1.05
